Values quoted from earlier work, collected in patent US20120184751A1, “POLYMORPHIC FORM OF OLMESARTAN MEDOXOMIL” (RANBAXY LABORATORIES LIMITED, priority 2009, published 2012).

Conditions: 75% relative humidity at 40° C. for one month

SMILES: CCCc1nc(C(C)(C)O)c(C(=O)OCc2oc(=O)oc2C)n1Cc1ccc(-c2ccccc2-c2nnn[nH]2)cc1 [amorphous olmesartan medoxomil, 2,3-dihydroxy-2-butenyl-4-(1-hydroxy-1-methylethyl)-2-propyl-1-[p-(o-1H-tetrazol-5-ylphenyl)benzyl]imidazole-5-carboxylate, cyclic 2,3-carbonate]
- solid-state stability / form conversion on storage: converts into hydrated olmesartan medoxomil having crystalline appearance
